Source: patent US20260240851A1, “Treatment of Parkinson's Disease in a Patient Using a Glucocerebrosidase Activator” (BIAL - R&D Investments, S.A., priority 2023, published 2026)
Like-named read-outs stand apart in the source and are kept apart here.

Experiments:
[1] = BIA 28-6156-107 DDI: effect of single-dose Compound A on single-dose PK of carbidopa-levodopa; details: both, human, in vivo, oral; for Tmax: Median Tmax, carbidopa
[2] = both, human, in vivo
clinical [3] = details: both, human, in vivo, geometric mean t1/2
[4] = both, human, in vivo; remark: listed apart in the source
Method: (§1) This was a Phase 1, non-randomized, open-label, 2-cohort, cross-over, DDI study in healthy male and female subjects.
(§2) In Cohort 1, a single oral dose 100 mg/25 mg levodopa-carbidopa (Sinemet®) IR was administered alone on Day 1.

clinical [5] = details: both, human, in vivo
Method: as §1, §2

clinical [6] = details: both, human, in vivo; remark: listed apart in the source
Method: as §1
(§3) In Cohort 2, a single oral dose 100 mg/25 mg levodopa-benserazide (Madopar®) IR was administered alone on Day 1.

[7] = both, human, in vivo; remark: listed apart in the source
Method: as §1, §3

[8] = BIA 28-6156-110 DDI, metformin portion; assay type: in vivo, human
Method: In Cohort 2, a single oral dose 500 mg metformin was administered alone on Day 1. From Day 2 to Day 7, a single daily dose of 60 mg Compound A was administered.

[9] = BIA 28-6156-105: safety and tolerability; details: 400 mg moxifloxacin
[10] = BIA 28-6156-105: continuous cardiac monitoring, concentration-QTc analysis; details: 400 mg moxifloxacin, positive control
[11] = Parkinson's patients with a GBA-1 mutation; Peterschmitt et al., 2021; cited from earlier work
[12] = BIA 28-6156-110 DDI, rosuvastatin portion; assay type: in vivo, human
Method: In Cohort 1, a single oral dose of 10 mg rosuvastatin was administered alone on Day 1. No drug was administered on Day 2. From Day 3 to Day 8, a single daily dose of 60 mg Compound A was administered.

[13] = 500 mg metformin + Compound A (60 mg daily) vs metformin alone
[14] = 10 mg rosuvastatin + Compound A (60 mg daily) vs rosuvastatin alone

C[C@@](Cc1ccc(O)c(O)c1)(NN)C(=O)O [carbidopa]
Tmax ([1]; carbidopa-levodopa alone): 2.5 h | Tmax ([1]; coadministered with Compound A): 2 h | half-life ([1]; geometric mean t1/2, carbidopa, both treatment conditions): 120 to 138 min | AUC0-last ratio of geometric least squares means (point estimate) [2]: 0.909 | Cmax ratio of geometric least squares means (point estimate) [2]: 1.031 | decrease of systemic exposure [2]: approximately 9% | increase of maximal exposure [2]: approximately 3%

N[C@@H](Cc1ccc(O)c(O)c1)C(=O)O [Levodopa, levodopa]
half-life (clinical [3]): 102 min | AUC(0-t) [4]: 1534 ng·h/mL | Tmax [4]: 1.00 h | half-life (clinical [5]): 101 min | Tmax (clinical [6]): 46.2 min | AUC(0-t) (clinical [6]; AUC0-t): 1940 ng·h/mL | AUC0-inf ratio of geometric least squares means (point estimate) [2]: 1.035 | AUC0-last ratio of geometric least squares means (point estimate) [2]: 1.048 | Cmax ratio of geometric least squares means (point estimate) [2]: 1.061 | Median Tmax [2]: 30 min | t1/2 [7]: 2.26 h

CN(C)C(=N)N=C(N)N [metformin]
AUC0-inf ratio of geometric least squares mean, estimate [8, 13]: 0.940 | AUC0-t ratio of geometric least squares mean, estimate [8, 13]: 0.938 | Cmax ratio of geometric least squares mean, estimate [8, 13]: 0.950 | effect of multiple oral doses of Compound A on metformin PK ([8]; single oral dose of metformin): no effect

COc1c(N2C[C@@H]3CCCN[C@@H]3C2)c(F)cc2c(=O)c(C(=O)O)cn(C3CC3)c12 [Moxifloxacin, moxifloxacin, reference compound]
Grade 3 (severe) TEAE considered related [9]: hypersensitivity | effect on ΔΔQTcF (concentration-QTc analysis) [10]: above 5 msec

CC(C)(NC(=O)O[C@@H]1CN2CCC1CC2)c1csc(-c2ccc(F)cc2)n1 [venglustat]
impact on slowing the progression of the condition [11]: no impact on slowing the progression of the condition

CC(C)c1nc(N(C)S(C)(=O)=O)nc(-c2ccc(F)cc2)c1/C=C/[C@@H](O)C[C@@H](O)CC(=O)O [rosuvastatin]
AUC0-inf ratio of geometric least squares mean, estimate [12, 14]: 3.041 | AUC0-t ratio of geometric least squares mean, estimate [12, 14]: 3.437 | Cmax ratio of geometric least squares mean, estimate [12, 14]: 3.467 | increase of rosuvastatin PK ([12]; with Compound A vs alone): about 3 fold | increased maximal exposure to rosuvastatin, Cmax ([12]; with Compound A vs alone): 347% | increased systemic exposure to rosuvastatin, AUC0-inf ([12]; with Compound A vs alone): 304% | increased systemic exposure to rosuvastatin, AUC0-t ([12]; with Compound A vs alone): 344%
